In patent US20250206730A1 (AUTOTELIC BIO INC., priority 2022, published 2025):

What was measured:
TGF-β signaling = assay: Assay for evaluating cellular inhibition of TGF-β signaling, 4T1 (SBE-luc2P) luciferase reporter; format: cell-based; conditions: Mus musculus, 4T1, 4T1 (SBE-luc2P) transient pool, 0.2% FBS, 2 h pre-treatment, TGF-β1 2 ng/mL 24 h; read-out: IC50 4T1 Cell
In short: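 4T1 cells transiently carrying SBE-luc2P (6×10^3/well, 0.2% FBS, ~60% confluence) or HEK293 SBE-reporter stable cells (2.5×10^4/well, 0.5% FBS, ~80% confluence) pre-treated with compound for 2 h. TGF-β1 (2 ng/mL) then added for 24 h at 37 °C; luciferase luminescence read from lysates.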

ALK5 kinase = target: T1, ALK5 kinase (Homo sapiens, UniProt P36897); assay: LanthaScreen Eu Kinase Binding Assay; conditions: Kinase Tracer 178, Eu-anti-GST Antibody, read-out: IC50 Enzyme
T1 sequence (P36897 34-503): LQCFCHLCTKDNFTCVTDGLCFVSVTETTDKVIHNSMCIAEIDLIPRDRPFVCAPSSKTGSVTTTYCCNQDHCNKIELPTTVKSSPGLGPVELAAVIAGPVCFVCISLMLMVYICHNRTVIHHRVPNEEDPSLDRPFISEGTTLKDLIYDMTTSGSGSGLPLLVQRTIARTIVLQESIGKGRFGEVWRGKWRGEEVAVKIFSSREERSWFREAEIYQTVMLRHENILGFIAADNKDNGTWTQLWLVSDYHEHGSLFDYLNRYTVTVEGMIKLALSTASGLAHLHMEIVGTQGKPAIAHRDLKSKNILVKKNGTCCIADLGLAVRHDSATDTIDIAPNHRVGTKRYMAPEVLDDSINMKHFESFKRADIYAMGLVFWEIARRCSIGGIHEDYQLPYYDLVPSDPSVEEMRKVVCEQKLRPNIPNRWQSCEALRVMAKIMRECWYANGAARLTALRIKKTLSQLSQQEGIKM
Protocol: [Example 1] LanthaScreen Eu Kinase Binding Assay
4 μL of 4× Test Compound in 4% DMSO and 4 μL of 4× Kinase in Kinase buffer were added to wells (low volume, white 384-well plate (Greiner Cat. #784207)). The plate was shaken for 30 seconds, centrifuged for 10 seconds at 1000 rpm, and incubated at RT for 30 minutes. Then, 4 μL of 4× Eu-anti-GST Antibody and 4 μL of 4× Kinase Tracer 178 were added to the wells. The plate was shaken for 30 seconds, centrifuged for 10 seconds at 1000 rpm, and incubated at RT for 60 minutes. Fluorescence was measured by a plate reader, Biotek Synergy H1 (Vermont, USA) under the following conditions. • Excitation: 340 nm (3 nm bandpass) • Kinase tracer emission: 665 nm (10 nm bandpass) • Eu Ab emission: 615 nm (10 nm bandpass) • Emission ratio=665 nm (tracer)/615 nm (Eu Ab) • The higher the binding affinity of compound to ALK5 kinase is, the less the emission ratio is.

SMILES | IC50 (TGF-β signaling) | IC50 (ALK5 kinase)
CCS(=O)(=O)Nc1cccc(Nc2cc(Oc3sc(C4CC4)nc3-c3ccccc3)ccn2)c1 [A-122, N-(3-((4-((2-Cyclopropyl-4-phenylthiazol-5-yl)oxy)pyridin-2-yl)amino)phenyl)ethanesulfonamide] | < 100 nM | < 100 nM
NC(=O)c1cccc(Nc2cc(Oc3sc(C4CC4)nc3-c3ccccc3)ccn2)n1 [A-124, 6-((4-((2-Cyclopropyl-4-phenylthiazol-5-yl)oxy)pyridin-2-yl)amino)picolinamide] | < 100 nM | < 100 nM
CNC(=O)c1cccc(Nc2cc(Oc3sc(C4CC4)nc3-c3ccccc3)ccn2)n1 [A-125, 6-((4-((2-Cyclopropyl-4-phenylthiazol-5-yl)oxy)pyridin-2-yl)amino)-N-methylpicolinamide] | < 100 nM | < 100 nM
CNC(=O)c1ccc(Nc2cc(Oc3sc(C4CC4)nc3-c3ccccc3)ccn2)cc1 [A-126, 4-((4-((2-Cyclopropyl-4-phenylthiazol-5-yl)oxy)pyridin-2-yl)amino)-N-methylbenzamide] | < 100 nM | < 100 nM
CS(=O)(=O)Nc1ccc(Nc2cc(Oc3sc(C4CC4)nc3-c3ccccc3)ccn2)nc1 [A-127, N-(6-((4-((2-Cyclopropyl-4-phenylthiazol-5-yl)oxy)pyridin-2-yl)amino)pyridin-3-yl)methanesulfonamide] | < 100 nM | < 100 nM
CS(=O)(=O)Nc1ccc(Nc2cc(Oc3sc(C4CC4)nc3-c3ccccc3)ccn2)cc1 [A-128, N-(4-((4-((2-Cyclopropyl-4-phenylthiazol-5-yl)oxy)pyridin-2-yl)amino)phenyl)methanesulfonamide] | < 100 nM | < 100 nM
NC(=O)c1ccc(Nc2cc(Oc3sc(C4CC4)nc3-c3ccccc3)ccn2)nc1 [A-129, 6-((4-((2-Cyclopropyl-4-phenylthiazol-5-yl)oxy)pyridin-2-yl)amino)nicotinamide] | < 100 nM | < 100 nM
O=C(O)c1ccc(Nc2cc(Oc3sc(C4CC4)nc3-c3ccccc3)ccn2)nc1 [A-132, 6-((4-((2-Cyclopropyl-4-phenylthiazol-5-yl)oxy)pyridin-2-yl)amino)nicotinic acid] | < 100 nM | < 100 nM
CNC(=O)c1ccc(Nc2cc(Oc3sc(C4CC4)nc3-c3ccccc3)ccn2)nc1 [A-133, 6-((4-((2-Cyclopropyl-4-phenylthiazol-5-yl)oxy)pyridin-2-yl)amino)-N-methylnicotinamide] | < 100 nM | < 100 nM
O=C(O)c1cccc(Nc2cc(Oc3sc(C4CC4)nc3-c3ccccc3)ccn2)n1 [A-134, 6-((4-((2-Cyclopropyl-4-phenylthiazol-5-yl)oxy)pyridin-2-yl)amino)picolinic acid] | < 100 nM | < 100 nM
O=C(O)c1cccc(Nc2cc(Oc3sc(C4CC4)nc3-c3ccccc3)ccn2)c1 [A-135, 3-((4-((2-Cyclopropyl-4-phenylthiazol-5-yl)oxy)pyridin-2-yl)amino)benzoic acid] | < 100 nM | < 100 nM
O=C(O)c1ccc(Nc2cc(Oc3sc(C4CC4)nc3-c3ccccc3)ccn2)cc1 [A-136, 4-((4-((2-Cyclopropyl-4-phenylthiazol-5-yl)oxy)pyridin-2-yl)amino)benzoic acid] | < 100 nM | < 100 nM
O=C(NO)c1ccc(Nc2cc(Oc3sc(C4CC4)nc3-c3ccccc3)ccn2)nc1 [A-138, 6-((4-((2-Cyclopropyl-4-phenylthiazol-5-yl)oxy)pyridin-2-yl)amino)-N-hydroxynicotinamide] | < 100 nM | < 100 nM
O=C(NO)c1ccc(Nc2cc(Oc3sc(C4CC4)nc3-c3ccccc3)ccn2)cc1 [A-139, 4-((4-((2-Cyclopropyl-4-phenylthiazol-5-yl)oxy)pyridin-2-yl)amino)-N-hydroxybenzamide] | > 100 nM | < 100 nM
CS(=O)(=O)NC(=O)c1ccc(Nc2cc(Oc3sc(C4CC4)nc3-c3ccccc3)ccn2)nc1 [A-140, 6-((4-((2-Cyclopropyl-4-phenylthiazol-5-yl)oxy)pyridin-2-yl)amino)-N-(methylsulfonyl)nicotinamide] | > 100 nM | < 100 nM
